Source: ChEMBL document CHEMBL1145206, “Design, synthesis and structure-activity relationships of novel taxane-based multidrug resistance reversal agents” (2005)

What follows are molecules tested on MCF7R (assay: MDR-reversal activity evaluated against the resistant human breast tumor cell line MCF7-R).
Type: functional
Set-up: concentration or dose not given beside the values

Row | SMILES | Reduction
1 | CC(=O)O[C@H]1C(=O)[C@]2(C)[C@@H](OC(=O)/C=C/c3ccc4ccccc4c3)C[C@H]3OC[C@@]3(OC(C)=O)[C@H]2[C@H](OC(=O)c2ccccc2)[C@]2(O)C[C@H](OC(C)=O)C(C)=C1C2(C)C | 99.3%
2 | CC(=O)O[C@@]12CO[C@@H]1C[C@H](OC(=O)/C=C/c1ccc3ccccc3c1)[C@@]1(C)C(=O)[C@H](OC(=O)CCc3ccc(C(=O)c4ccccc4)cc3)C3=C(C)[C@@H](O)C[C@@](O)([C@@H](OC(=O)c4ccccc4)[C@H]21)C3(C)C | 0%
3 | CC(=O)O[C@@]12CO[C@@H]1C[C@H](OC(=O)/C=C/c1ccc3ccccc3c1)[C@@]1(C)C(=O)[C@H](OC(=O)/C=C/c3ccc4ccccc4c3)C3=C(C)[C@@H](O)C[C@@](O)([C@@H](OC(=O)c4ccccc4)[C@H]21)C3(C)C | 45%
4 | CC(=O)O[C@@]12CO[C@@H]1C[C@H](O)[C@@]1(C)C(=O)[C@H](OC(=O)/C=C/c3ccc(C(=O)c4ccccc4)cc3)C3=C(C)[C@@H](O)C[C@@](O)([C@@H](OC(=O)c4ccccc4)[C@H]21)C3(C)C | 95%
5 | CC(=O)O[C@H]1C(=O)[C@]2(C)[C@@H](OC(=O)/C=C/c3ccc(C(=O)c4ccccc4)cc3)C[C@H]3OC[C@@]3(OC(C)=O)[C@H]2[C@H](OC(=O)c2ccccc2)[C@]2(O)C[C@H](O)C(C)=C1C2(C)C | 99.8%
6 | CC(=O)O[C@H]1C(=O)[C@]2(C)[C@@H](OC(=O)CNC(=O)c3ccc4ccccc4c3)C[C@H]3OC[C@@]3(OC(C)=O)[C@H]2[C@H](OC(=O)c2ccccc2)[C@]2(O)C[C@H](O)C(C)=C1C2(C)C | 42%
7 | CC(=O)O[C@H]1C(=O)[C@]2(C)[C@@H](OC(=O)CCc3cccc4ccccc34)C[C@H]3OC[C@@]3(OC(C)=O)[C@H]2[C@H](OC(=O)c2ccccc2)[C@]2(O)C[C@H](O)C(C)=C1C2(C)C | 96%
8 | CC(=O)O[C@@]12CO[C@@H]1C[C@H](OC(=O)CCc1ccc(C(=O)c3ccccc3)cc1)[C@@]1(C)C(=O)[C@H](OC(=O)CCc3ccc(C(=O)c4ccccc4)cc3)C3=C(C)[C@@H](O)C[C@@](O)([C@@H](OC(=O)c4ccccc4)[C@H]21)C3(C)C | 99.7%
9 | CC(=O)O[C@H]1C(=O)[C@]2(C)[C@@H](OC(=O)CCC3CCCC4CCCCC43)C[C@H]3OC[C@@]3(OC(C)=O)[C@H]2[C@H](OC(=O)C2CCCCC2)[C@]2(O)C[C@H](O)C(C)=C1C2(C)C (stereo partly drawn) | 81%
10 | CC(=O)O[C@H]1C(=O)[C@]2(C)[C@@H](OC(=O)c3ccc4ccccc4c3)C[C@H]3OC[C@@]3(OC(C)=O)[C@H]2[C@H](OC(=O)c2ccccc2)[C@]2(O)C[C@H](O)C(C)=C1C2(C)C | 97.5%

What follows are molecules tested on MDA-MB-435 (assay: MDR-reversal activity evaluated against the resistant human breast tumor cell line MDA-435/LCC6-MDR).
Type: functional
Set-up: concentration or dose not given beside the values

Row | SMILES | Reduction
11 | CC(=O)O[C@H]1C(=O)[C@]2(C)[C@@H](OC(=O)/C=C/c3cccc(NC(=O)c4ccccc4)c3)C[C@H]3OC[C@@]3(OC(C)=O)[C@H]2[C@H](OC(=O)c2ccccc2)[C@]2(O)C[C@H](OC(C)=O)C(C)=C1C2(C)C | 83%
12 | COc1ccccc1C(=O)Oc1ccc(/C=C/C(=O)O[C@H]2C[C@H]3OC[C@@]3(OC(C)=O)[C@H]3[C@H](OC(=O)c4ccccc4)[C@]45OC(=O)O[C@H]4[C@H](OC(C)=O)C(C)=C([C@@H](OC(C)=O)C(=O)[C@]23C)C5(C)C)cc1 | 79%
13 | CC(=O)O[C@@]12CO[C@@H]1C[C@H](O)[C@@]1(C)C(=O)[C@H](O)C3=C(C)[C@@H](OC(=O)CCc4ccc5ccccc5c4)C[C@@](O)([C@@H](OC(=O)c4ccccc4)[C@H]21)C3(C)C | 37%
14 | CC(=O)O[C@H]1C(=O)[C@]2(C)[C@@H](OC(C)=O)C[C@H]3OC[C@@]3(OC(C)=O)[C@H]2[C@H](OC(=O)CCc2ccc3ccccc3c2)[C@]2(O)C[C@H](OC(C)=O)C(C)=C1C2(C)C | 24%
15 | COc1ccc(CC(=O)O[C@H]2C(=O)[C@]3(C)[C@@H](OC(=O)/C=C/c4ccc(C(=O)c5ccccc5)cc4)C[C@H]4OC[C@@]4(OC(C)=O)[C@H]3[C@H](OC(=O)c3ccccc3)[C@]3(O)C[C@H](OC(C)=O)C(C)=C2C3(C)C)cc1 | 7%
16 | CC(=O)O[C@H]1C(=O)[C@]2(C)[C@@H](OC(=O)/C=C/c3ccc(C(=O)c4ccccc4)cc3)C[C@H]3OC[C@@]3(OC(C)=O)[C@H]2[C@H](OC(=O)c2ccccc2)[C@]23OC(=O)O[C@H]2[C@H](OC(C)=O)C(C)=C1C3(C)C | 94%
17 | CC(=O)O[C@H]1C(=O)[C@]2(C)[C@@H](OC(=O)/C=C/c3ccc(OC(=O)c4ccc(Br)cc4)cc3)C[C@H]3OC[C@@]3(OC(C)=O)[C@H]2[C@H](OC(=O)c2ccccc2)[C@]23OC(=O)O[C@H]2[C@H](OC(C)=O)C(C)=C1C3(C)C | 34%
18 | CC(=O)O[C@H]1C[C@@]2(O)[C@@H](OC(=O)c3ccccc3)[C@@H]3[C@]4(OC(C)=O)CO[C@@H]4C[C@H](OC(=O)/C=C/c4ccc(C(=O)c5ccccc5)cc4)[C@@]3(C)C(=O)[C@H](OC(=O)OCc3ccccc3)C(=C1C)C2(C)C | 10%
19 | CC(=O)O[C@H]1C(=O)[C@]2(C)[C@@H](OC(=O)COc3ccc4ccccc4c3)C[C@H]3OC[C@@]3(OC(C)=O)[C@H]2[C@H](OC(=O)c2ccccc2)[C@]2(O)C[C@H](OC(C)=O)C(C)=C1C2(C)C | 86%
20 | COc1ccc(C(=O)Oc2ccc(/C=C/C(=O)O[C@H]3C[C@H]4OC[C@@]4(OC(C)=O)[C@H]4[C@H](OC(=O)c5ccccc5)[C@]5(O)C[C@H](OC(C)=O)C(C)=C([C@@H](OC(C)=O)C(=O)[C@]34C)C5(C)C)cc2)cc1 | 39%
21 | CC(=O)O[C@H]1C(=O)[C@]2(C)[C@@H](OC(=O)/C=C/c3cccc(C(=O)c4ccc(C)cc4)c3)C[C@H]3OC[C@@]3(OC(C)=O)[C@H]2[C@H](OCc2ccccc2)[C@]2(O)C[C@H](OC(C)=O)C(C)=C1C2(C)C | 91%
22 | CC(=O)O[C@H]1C(=O)[C@]2(C)[C@@H](OC(=O)/C=C/c3ccc(O)cc3)C[C@H]3OC[C@@]3(OC(C)=O)[C@H]2[C@H](OC(=O)c2ccccc2)[C@]2(O)C[C@H](OC(C)=O)C(C)=C1C2(C)C | 34%
23 | CC(=O)O[C@H]1C(=O)[C@]2(C)[C@@H](OC(=O)/C=C/c3ccc(OC(=O)c4ccc[nH]4)cc3)C[C@H]3OC[C@@]3(OC(C)=O)[C@H]2[C@H](OC(=O)c2ccccc2)[C@]23OC(=O)O[C@H]2[C@H](OC(C)=O)C(C)=C1C3(C)C | 63%
24 | CC(=O)O[C@H]1C(=O)[C@]2(C)[C@@H](OC(=O)/C=C/c3cccc(OC(=O)c4ccccc4)c3)C[C@H]3OC[C@@]3(OC(C)=O)[C@H]2[C@H](OC(=O)c2ccccc2)[C@]2(O)C[C@H](OC(C)=O)C(C)=C1C2(C)C | 17%
25 | CC(=O)O[C@H]1C[C@@]2(O)[C@@H](OC(=O)c3ccccc3)[C@@H]3[C@]4(OC(C)=O)CO[C@@H]4C[C@H](OC(C)=O)[C@@]3(C)C(=O)[C@H](OC(=O)/C=C/c3ccc(Oc4ccccc4)cc3)C(=C1C)C2(C)C | 29%
26 | CC(=O)O[C@H]1C[C@@]2(O)[C@@H](OC(=O)c3ccccc3)[C@@H]3[C@]4(OC(C)=O)CO[C@@H]4C[C@H](OC(C)=O)[C@@]3(C)C(=O)[C@H](OC(=O)/C=C/c3cccc(NC(=O)c4ccccc4)c3)C(=C1C)C2(C)C | 43%
27 | CC(=O)O[C@H]1C(=O)[C@]2(C)[C@@H](OC(=O)CCc3ccc(Cc4ccccc4)cc3)C[C@H]3OC[C@@]3(OC(C)=O)[C@H]2[C@H](OC(=O)c2ccccc2)[C@]2(O)C[C@H](OC(C)=O)C(C)=C1C2(C)C | 16%
28 | CC(=O)O[C@H]1C(=O)[C@]2(C)[C@@H](OC(C)=O)C[C@H]3OC[C@@]3(OC(C)=O)[C@H]2[C@H](OC(=O)/C=C/c2ccc(C(=O)c3ccccc3)cc2)[C@]2(O)C[C@H](OC(C)=O)C(C)=C1C2(C)C | 27%
29 | CC(=O)O[C@H]1C[C@@]2(O)[C@@H](OC(=O)c3ccccc3)[C@@H]3[C@]4(OC(C)=O)CO[C@@H]4C[C@H](OC(C)=O)[C@@]3(C)C(=O)[C@H](OC(=O)/C=C/c3ccc(C(=O)Oc4ccccc4)cc3)C(=C1C)C2(C)C | 24%
30 | CC(=O)O[C@H]1C[C@@]2(O)[C@@H](OC(=O)c3ccccc3)[C@@H]3[C@]4(OC(C)=O)CO[C@@H]4C[C@H](OC(=O)/C=C/c4ccc(C(=O)c5ccccc5)cc4)[C@@]3(C)C(=O)[C@H](OC(=O)c3ccccc3)C(=C1C)C2(C)C | 51%
31 | CC(=O)O[C@H]1C(=O)[C@]2(C)[C@@H](OC(=O)/C=C/c3ccc(C(=O)c4ccccc4)cc3)C[C@H]3OC[C@@]3(OC(C)=O)[C@H]2[C@H](OC(=O)C2CCCCC2)[C@]2(O)C[C@H](OC(C)=O)C(C)=C1C2(C)C | 86%
32 | CC(=O)O[C@H]1C(=O)[C@]2(C)[C@@H](OC(=O)/C=C/c3ccc(OC(=O)c4cc5ccccc5[nH]4)cc3)C[C@H]3OC[C@@]3(OC(C)=O)[C@H]2[C@H](OC(=O)c2ccccc2)[C@]23OC(=O)O[C@H]2[C@H](OC(C)=O)C(C)=C1C3(C)C | 43%
33 | CC(=O)O[C@H]1C(=O)[C@]2(C)[C@@H](OC(=O)/C=C/c3ccc(Sc4ccccc4)cc3)C[C@H]3OC[C@@]3(OC(C)=O)[C@H]2[C@H](OC(=O)c2ccccc2)[C@]23OC(=O)O[C@H]2[C@H](OC(C)=O)C(C)=C1C3(C)C | 63%
34 | CC(=O)O[C@H]1C(=O)[C@]2(C)[C@@H](OC(=O)/C=C/c3ccc(Oc4ccccc4)cc3)C[C@H]3OC[C@@]3(OC(C)=O)[C@H]2[C@H](OC(=O)c2ccccc2)[C@]2(O)C[C@H](OC(C)=O)C(C)=C1C2(C)C | 90%
35 | CC(=O)O[C@H]1C(=O)[C@]2(C)[C@@H](OC(=O)/C=C/c3ccc4ccccc4c3)C[C@H]3OC[C@@]3(OC(C)=O)[C@H]2[C@H](OC(=O)c2ccccc2)[C@]23OC(=O)O[C@H]2[C@H](OC(C)=O)C(C)=C1C3(C)C | 60%
36 | CC(=O)O[C@H]1C(=O)[C@]2(C)[C@@H](OC(=O)CCc3ccc4c(c3)C(=O)c3ccccc3C4=O)C[C@H]3OC[C@@]3(OC(C)=O)[C@H]2[C@H](OC(=O)c2ccccc2)[C@]2(O)C[C@H](OC(C)=O)C(C)=C1C2(C)C | 29%
37 | CC(=O)O[C@H]1C(=O)[C@]2(C)[C@@H](OC(=O)/C=C/c3ccc(OC(=O)c4ccccc4)cc3)C[C@H]3OC[C@@]3(OC(C)=O)[C@H]2[C@H](OC(=O)c2ccccc2)[C@]2(O)C[C@H](OC(C)=O)C(C)=C1C2(C)C | 91%
38 | COc1ccccc1C(=O)Oc1ccc(/C=C/C(=O)O[C@H]2C[C@H]3OC[C@@]3(OC(C)=O)[C@H]3[C@H](OC(=O)c4ccccc4)[C@]4(O)C[C@H](OC(C)=O)C(C)=C([C@@H](OC(C)=O)C(=O)[C@]23C)C4(C)C)cc1 | 57%
